Laboratory results published in PMC6943612, “Investigation of Anti-Inflammatory Potential of N-Arylcinnamamide Derivatives” (Molecules, 2019).

What was measured:
THP1-Blue™ NF-κB cells = test: Cell viability determination (WST-1), 24 h; assay type: cell-based; conditions: WST-1, 24 h incubation, serum-free medium, three independent measurements; read-out: IC50 ± SEM, viability of THP1-Blue™ NF-κB cell line
Experimental: The cell viability was determined as was described previously. […] The final concentration of DMSO was 0.1% (v/v) in each well. Measurements were taken after 24 h incubation with the tested substances. Viability was measured by the Cell Proliferation Reagent kit WST-1 (Roche Diagnostics, Basel, Switzerland) according to the manufacturer’s manual. […] The IC50 values were calculated by four-parameter logistic (4PL) analysis from obtained viability curves.

[1] = test system: transcription factor NF-κB; test: Determination of LPS-induced NF-κB activity (Quanti-Blue, SEAP reporter); assay type: cell-based; conditions: for inhibition at 2 µM: concentration of compounds 2 µM; for inhibition at 2 µM / inhibition at 0.5 µM: LPS 1 µg/mL, 24 h; for inhibition at 0.5 µM: concentration of compounds 0.5 µM; for inhibitory effect on NF-κB activity compared with prednisone (in words): 2 µM, same concentration as prednisone
Experimental: The activity of NF-κB transcription factors was evaluated on THP1-Blue™ NF-κB cells as described previously. […] After 24 h of incubation, 20 µL of cultivation medium was mixed with 200 µL of Quanti-Blue™ medium (Invivogen) and incubated according to the manufacturer’s instructions at 37 °C for 30–40 min. The activity of NF-κB was determined as secretion of embryonic alkaline phosphatase spectrophotometrically in a Tecan Infinite M200 (Tecan, Männedorf Switzerland) at 650 nm and compared with an untreated control (100%).
Figure 3 Effect of the tested compounds on the activity of transcription factor NF-κB. THP1-Blue™ NF-κB cells were pretreated by compounds (2 µM; or 0.5 µM for 10, 11, and 13) or prednisone (PDS; 2 µM) dissolved in DMSO at indicated concentrations for 1 h. Then, lipopolysaccharide (LPS) 1 µg/mL was added to trigger the NF-κB activation. The activity of NF-κB was measured 24 h after LPS stimulation using QuantiBlue™ assay. Graph represents mean ± SEM. Red dotted line show value of DMSO-only treated group, azur dotted line CA treated group, and blue dotted line PDS treated group. ** indicates statistical significance (p < 0.01) to DMSO group; *** indicates statistical significance (p < 0.001) to DMSO group **** indicates statistical significance (p < 0.0001) to DMSO group.

[2] = parameters: method as in PMID 30087309; conditions: cited from earlier work
TNF-α = TNF-α secretion by LPS-stimulated PMA-differentiated THP1-Blue™ NF-κB macrophages (ELISA); assay type: cell-based, Human; conditions: 2 µM, LPS 1 µg/mL, 24 h
Experimental: Differentiated THP1-Blue™ NF-κB macrophages (see the chapter 3.6) were pre-treated for 1 h with 2 µM solutions of the tested compounds 8, 12, 6, 17, cinnamic acid, and prednisone dissolved in DMSO, or only the vehicle [0.1% (v/v) […] solution]. The inflammatory-like response was triggered by adding 1 μg/mL of LPS from E. coli 0111:B4 (Sigma-Aldrich) to the pre-treated macrophages; the control cells were left without LPS treatment. After 24 h, the supernatants were collected and the concentration of TNF-α was measured using a Human TNF-α ELISA Kit (Diaclone, Besançon, France), according to the manufacturer’s manual.
Figure 7 Effect of N-arylcinnamamide derivatives on the secretion of TNF-α. THP1-Blue™ NF-κB cells were differentiated to macrophages by PMA. Such cells were pretreated by compounds or PDS (2 µM) for 1 h, then LPS (1 µg/mL) was added to trigger the inflammatory signalization. Cultivation medium was collected 24 h after LPS stimulation, and the amount of TNF-α was measured by the ELISA technique. Graph represents mean ± SEM. * indicates statistical significance (p < 0.05) to DMSO group; ** indicates statistical significance (p < 0.01) to DMSO group **** indicates statistical significance (p < 0.0001) to DMSO group.

IκBα = test: Signaling pathway analysis (Western blot): IκBα level; assay type: cell-based; conditions: 2 µM, 30 min after LPS 1 µg/mL
Experimental: (§1) The level of IĸB and the amount of activated (phosphorylated) mitogen-activated protein (MAP) kinase p38, ERK1/2, and JNK was determined on the THP1-Blue™ NF-κB, in a way similar to that described previously. Briefly, cells cultivated in serum-free medium were pretreated with the tested compounds (8, 17, cinnamic acid, or prednisone) at concentration 2 µM. One hour later, 1 µg/mL of LPS was added, and after 30 min the cells were collected into ice-cold Mammalian Cell Lysis Buffer (Abcam, Cambridge, UK) with phosphatase inhibitors PhosSTOP (Roche, Mannheim, Germany). Cell lysates were centrifuged 3000 g/5 min/4 °C and supernatants were mixed with 5× Laemmli reducing buffer [250 mM Tris-HCl pH 6.8, 10% (w/v) SDS, 30% (v/v) glycerol, 5% (v/v) β-mercaptolethanol, 0.04% (w/v) bromphenol blue], and incubated at 95 °C for 5 min. […] The membranes were incubated at 4 °C for 16 h with primary anti-IĸB-α (Cell Signaling; product No. 4814; dilution 1:1,000), anti-p44/42 MAPK (ERK1/2) (Cell Signaling; product No. 9102; dilution 1:1,000), anti-phospho-p44/42 MAPK (ERK1/2) (Cell Signaling; product No. 9101; dilution 1:1,000), anti-JNK1/2/3 (Abcam; product No. ab179461; dilution 1:1,000), anti-phosho-JNK1/2/3 (Abcam; product No. ab76572; dilution 1:5,000), anti-p38 MAPK (Cell Signaling; product No. 8690; dilution 1:1,000), anti-phospho-p38 MAPK (Cell Signaling; product No. 9210; dilution 1:1,000), and anti-β-actin (Santa Cruz, Aachen, Germany; product No. sc-47778; dilution 1:5000) antibodies. […] The amount of bound secondary antibody was determined using WesternSure® PREMIUM Chemiluminescent Substrate (LI-COR, Lincoln, NE, USA). Chemiluminescence was detected using a LI-COR C-DiGit chemiluminescence imaging system (LI-COR).
(§2) Figure 6 Effect of N-arylcinnamamide derivatives on the activation of MAPKs. […] Cells were collected 30 min after LPS stimulation and selected proteins were detected by Western blot and immunodetection.

MAPKs (p38, ERK1/2, JNK) = test: Signaling pathway analysis (Western blot): phosphorylated MAPKs; assay type: cell-based; conditions: 2 µM, 30 min after LPS 1 µg/mL
Experimental: as §1, §2

NF-κB p65 = test: Immunocytochemical analysis of NF-κB nuclear migration; assay type: cell-based; conditions: 2 µM, 1 h after LPS 1 µg/mL, PMA-differentiated macrophages
Experimental: To differentiate THP1-Blue™ NF-κB monocytes into macrophages, the cells were stimulated with phorbol myristate acetate (PMA) at the final concentration of 50 ng/mL, as was described previously. Cells were seeded into 8-well cell culture glass slide (SPL, Korea) at the concentration of 500,000 cells/mL, 150,000 cells per well. The compound 17 was added at the final concentration of 2 µM, and 1 h later, the cells were activated by LPS (1 µg/mL). After 1h, the culture slide was washed with PBS and fixed with 4% formaldehyde. The cells were permeabilized by 0.1% Triton X-100 (v/v; Merck) and blocked with 3% bovine serum albumin (BSA, Merck) dissolved in PBS. The primary antibody NF-κB p65 (Abcam, Cambridge, UK; product No. ab16502) at concentration 2.5 µg/mL was used for overnight incubation at 4 °C. After that, secondary anti-rabbit antibody labeled with Alexa Fluor® 488 (Cell Signaling; product No. 4412; dilution 1:1000) was added for 1 h in dark, and the nuclei were stained using 0,5 µg/mL DAPI (Merck) for 5 min. The wells were washed three-times between the mentioned steps with PBS. The coverslip was mounted with VectaShield mounting (Vector laboratories, Burlingame, CA, USA) medium and sealed with the nail polish. The nail polish was allowed to dry at 4 °C and the translocation of NF-κB was observed by fluorescence microscopy. […]

| IC50 (THP1-Blue™ NF-κB cells) | Structure (SMILES) | inhibition at 2 µM [1] | other results |
| --- | --- | --- | --- |
| > 30 µM | Cc1ccc(NC(=O)/C=C/c2ccccc2)cc1 [Compound 3] | 8.5% |  |
| 6.28 ± 2.32 µM | O=C(/C=C/c1ccccc1)Nc1ccc(Cl)c(Cl)c1 [Compound 10] |  | log k [2]: 0.6821; inhibition at 0.5 µM [1]: 10.9% |
| > 30 µM | O=C(/C=C/c1ccccc1)Nc1cc(Br)ccc1F [Compound 14] | 19.7% |  |
| > 30 µM | O=C(/C=C/c1ccccc1)Nc1c(Br)cccc1Br [Compound 12, (2E)-N-(2,6-dibromophenyl)-3-phenylprop-2-enamide] | 23.1% | decrease of the level of TNF-α (TNF-α): 10%; effect on TNF-α production (in words) (TNF-α): decreased; inhibitory effect on NF-κB activity compared with prednisone (in words) [1]: comparable with prednisone |
| 2.43 ± 1.06 µM | O=C(/C=C/c1ccccc1)Nc1cc(Cl)cc(Cl)c1 [Compound 11] |  | log k [2]: 0.8155; inhibition at 0.5 µM [1]: 16.2% |
| > 30 µM | Cc1cccc(NC(=O)/C=C/c2ccccc2)c1 [Compound 2] | 9% |  |
| 11.6 ± 1.13 µM | O=C(/C=C/c1ccccc1)Nc1cccc(C(F)(F)F)c1 [Compound 6, (2E)-3-Phenyl-N-[3-(trifluoromethyl)phenyl]prop-2-enamide] | 16.7% | decrease of the level of TNF-α (TNF-α): 10.4%; log k [2]: 0.4859 |
| > 30 µM | Cc1ccc(C)c(NC(=O)/C=C/c2ccccc2)c1 [Compound 7] | 14.8% |  |
| > 30 µM | O=C(/C=C/c1ccccc1)Nc1ccc(Br)cc1Cl [Compound 16, (2E)-N-(4-bromo-2-chlorophenyl)-3-phenylprop-2-enamide] | 13.7% |  |
|  | C[C@]12C=CC(=O)C=C1CC[C@@H]1[C@@H]2C(=O)C[C@@]2(C)[C@H]1CC[C@]2(O)C(=O)CO [PDS, prednisone, reference compound] |  | decrease of the level of TNF-α (TNF-α): 70.3% |
| > 30 µM | O=C(O)/C=C/c1ccccc1 [CA, cinnamic acid, reference compound] | 11.4% | effect on IκBα levels (IκBα): no effect; effect on TNF-α production (in words) (TNF-α): did not affect; effect on MAPKs activity (MAPKs (p38, ERK1/2, JNK)): no effect |
| > 30 µM | O=C(/C=C/c1ccccc1)Nc1cc(C(F)(F)F)ccc1Cl [Compound 17, (2E)-N-[2-Chloro-5-(trifluoromethyl)phenyl]-3-phenylprop-2-enamide] | 27.1% | effect on IκBα levels (IκBα): no effect; decrease of the level of TNF-α (TNF-α): 12.4%; effect on TNF-α production (in words) (TNF-α): decreased; effect on MAPKs activity (MAPKs (p38, ERK1/2, JNK)): no effect; nuclear translocation of NF-κB after LPS stimulation (NF-κB p65): slightly affected; inhibitory effect on NF-κB activity compared with prednisone (in words) [1]: comparable with prednisone |
| > 30 µM | O=C(/C=C/c1ccccc1)Nc1cc(F)ccc1Br [Compound 15, (2E)-N-(2-bromo-5-fluorophenyl)-3-phenylprop-2-enamide] | 17.8% |  |
| 2.17 ± 1.19 µM | O=C(/C=C/c1ccccc1)Nc1cc(C(F)(F)F)cc(C(F)(F)F)c1 [Compound 13] |  | log k [2]: 0.9814; inhibition at 0.5 µM [1]: 19.7% |
| > 30 µM | O=C(/C=C/c1ccccc1)Nc1cc(Cl)ccc1Cl [Compound 8, (2E)-N-(2,5-dichlorophenyl)-3-phenylprop-2-enamide] | 22.5% | effect on IκBα levels (IκBα): no effect; effect on MAPKs activity (MAPKs (p38, ERK1/2, JNK)): no effect; inhibitory effect on NF-κB activity compared with prednisone (in words) [1]: comparable with prednisone |
| > 30 µM | COc1ccc([N+](=O)[O-])cc1NC(=O)/C=C/c1ccccc1 [Compound 18, (2E)-N-(2-methoxy-5-nitrophenyl)-3-phenylprop-2-enamide] | 17.6% |  |
| > 30 µM | O=C(/C=C/c1ccccc1)Nc1c(Cl)cccc1Cl [Compound 9] | 14.1% |  |
